# From PMC9105384, “Ethyl Gallate Dual-Targeting PTPN6 and PPARγ Shows Anti-Diabetic and Anti-Obese Effects” (International Journal of Molecular Sciences, 2022)
# Tests used:
# PTPN1 = target: T1, PTPN1 (Homo sapiens, UniProt P18031); set-up: DiFMUP hydrolysis by purified PTPs, fluorescence Ex355/Em460, initial rates over 10 min; Michaelis-Menten and Lineweaver-Burk Km; conditions: optimized pH for each PTP; substrate
# T1 sequence (P18031 1-435): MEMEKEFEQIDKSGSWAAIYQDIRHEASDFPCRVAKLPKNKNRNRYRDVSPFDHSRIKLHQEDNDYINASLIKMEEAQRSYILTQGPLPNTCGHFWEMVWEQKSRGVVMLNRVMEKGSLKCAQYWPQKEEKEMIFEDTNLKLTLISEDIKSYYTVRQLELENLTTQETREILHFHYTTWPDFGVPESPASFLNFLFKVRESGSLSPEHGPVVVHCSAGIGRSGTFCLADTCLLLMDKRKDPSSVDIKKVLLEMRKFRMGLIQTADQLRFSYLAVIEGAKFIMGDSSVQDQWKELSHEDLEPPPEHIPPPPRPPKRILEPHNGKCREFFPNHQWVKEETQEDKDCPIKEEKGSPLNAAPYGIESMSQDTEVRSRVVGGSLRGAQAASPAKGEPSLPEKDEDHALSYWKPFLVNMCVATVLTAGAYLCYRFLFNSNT
# Procedure: (§1) The enzymatic activity of each PTP was evaluated using 6,8-difluoro-4-methylumbelliferyl phosphate (DiFMUP) as the surrogate substrate. To reach within the range of the initial rate (v0) during the measurement for 10 min, the pH and concentration of each PTP were optimized and are listed in Table S3. To determine the Km values, each PTP with optimized concentration was added to the reaction buffer (20 mM Bis-Tris at pH 6.0 or Tris at pH 7.0 and 8.0, 150 mM NaCl, 2.5 mM dithiothreitol (DTT), 0.01% Triton X-100) containing various concentrations of DiFMUP to obtain a final volume of 100 μL in a 96-well plate. Fluorescence intensities were measured once every minute for a complete 10 min duration using a Victor™ X4 Multilabel Plate Reader (Perkin Elmer, Waltham, MA, USA) at excitation/emission = 355 nm/460 nm. The initial rates of the reaction were determined using a previously described procedure for calculating the amount of product formation. To screen a library of 1033 natural products (Chengdu Biopurify Phytochemicals Ltd., Chengdu, China) against 20 PTPs, each PTP with an optimized concentration was added to the reaction buffer with an optimized pH containing DiFMUP (2 × Km for each PTP) after adding each compound (20 μM). […] The Hill coefficient (nH), the degree of cooperativity, was calculated according to a previously published method. […]
# PTPRJ = target: T2, PTPRJ (Homo sapiens, UniProt Q12913); set-up: DiFMUP hydrolysis by purified PTPs, fluorescence Ex355/Em460, initial rates over 10 min; Michaelis-Menten and Lineweaver-Burk Km; conditions: optimized pH for each PTP; substrate
# T2 sequence (Q12913 1-1337): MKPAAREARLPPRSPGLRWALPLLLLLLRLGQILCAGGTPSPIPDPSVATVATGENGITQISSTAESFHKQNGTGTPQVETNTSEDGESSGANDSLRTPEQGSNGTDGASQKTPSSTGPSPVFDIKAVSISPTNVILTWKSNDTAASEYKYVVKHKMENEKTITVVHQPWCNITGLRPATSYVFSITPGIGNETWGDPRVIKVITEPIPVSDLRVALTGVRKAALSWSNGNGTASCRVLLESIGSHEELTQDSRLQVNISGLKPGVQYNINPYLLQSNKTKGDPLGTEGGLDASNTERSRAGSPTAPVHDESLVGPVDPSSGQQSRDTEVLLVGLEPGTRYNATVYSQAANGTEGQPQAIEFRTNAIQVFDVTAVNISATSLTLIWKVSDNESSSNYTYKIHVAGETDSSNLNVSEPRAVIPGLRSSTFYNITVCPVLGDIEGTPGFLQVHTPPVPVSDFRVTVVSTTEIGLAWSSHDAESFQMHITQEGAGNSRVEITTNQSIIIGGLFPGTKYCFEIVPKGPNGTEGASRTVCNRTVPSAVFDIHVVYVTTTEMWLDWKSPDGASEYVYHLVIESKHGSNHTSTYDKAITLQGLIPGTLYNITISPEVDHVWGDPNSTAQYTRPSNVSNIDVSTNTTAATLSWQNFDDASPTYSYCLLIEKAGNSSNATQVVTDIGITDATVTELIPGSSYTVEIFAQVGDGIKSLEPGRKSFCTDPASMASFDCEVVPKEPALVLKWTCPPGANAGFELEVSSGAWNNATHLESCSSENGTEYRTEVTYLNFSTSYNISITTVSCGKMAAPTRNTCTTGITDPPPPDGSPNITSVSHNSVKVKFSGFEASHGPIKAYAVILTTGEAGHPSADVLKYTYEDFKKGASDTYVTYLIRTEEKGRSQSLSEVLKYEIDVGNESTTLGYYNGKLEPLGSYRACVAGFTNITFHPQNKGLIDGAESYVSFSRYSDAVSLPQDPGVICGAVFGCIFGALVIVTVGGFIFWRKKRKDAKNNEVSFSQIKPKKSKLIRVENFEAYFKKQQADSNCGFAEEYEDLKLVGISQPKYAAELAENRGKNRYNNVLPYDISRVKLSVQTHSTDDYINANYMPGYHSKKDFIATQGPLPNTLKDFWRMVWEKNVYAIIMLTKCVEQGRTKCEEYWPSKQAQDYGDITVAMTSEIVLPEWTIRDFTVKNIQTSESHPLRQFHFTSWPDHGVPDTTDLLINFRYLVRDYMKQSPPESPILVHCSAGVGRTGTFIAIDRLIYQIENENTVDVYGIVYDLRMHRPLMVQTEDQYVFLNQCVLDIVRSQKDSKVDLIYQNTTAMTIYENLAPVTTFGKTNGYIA
# Procedure: as §1
# PTPN6 [1] = target: T3, PTPN6 (Homo sapiens, UniProt P29350); assay: DiFMUP fluorescence phosphatase assay; Dixon and Lineweaver-Burk plots (IC50 […]); format: biochemical
# T3 sequence (P29350 whole entry): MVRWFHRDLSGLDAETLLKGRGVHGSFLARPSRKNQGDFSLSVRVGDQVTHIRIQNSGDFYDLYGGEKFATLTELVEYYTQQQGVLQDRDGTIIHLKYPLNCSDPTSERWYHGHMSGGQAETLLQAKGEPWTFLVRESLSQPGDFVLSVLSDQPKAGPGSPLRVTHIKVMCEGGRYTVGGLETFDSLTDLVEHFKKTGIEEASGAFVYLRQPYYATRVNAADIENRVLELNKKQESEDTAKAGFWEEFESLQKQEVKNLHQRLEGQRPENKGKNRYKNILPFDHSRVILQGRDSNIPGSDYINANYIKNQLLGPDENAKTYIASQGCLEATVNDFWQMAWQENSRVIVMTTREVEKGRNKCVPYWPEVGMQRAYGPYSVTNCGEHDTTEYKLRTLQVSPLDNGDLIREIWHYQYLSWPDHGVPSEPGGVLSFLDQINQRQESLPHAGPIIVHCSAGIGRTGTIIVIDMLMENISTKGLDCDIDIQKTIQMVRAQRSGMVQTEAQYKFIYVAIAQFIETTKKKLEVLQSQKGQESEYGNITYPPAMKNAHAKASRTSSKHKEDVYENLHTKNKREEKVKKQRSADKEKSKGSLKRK
# PTPN6 [2] = target: T3, PTPN6; assay: DiFMUP phosphatase screen, single dose […] (% inhibition, hit threshold […]); format: biochemical; conditions: read-out: % inhibition at 20 μM
inhibition at 20 µM (PTPN6 [2]) [%],SMILES,also measured
–,"Cc1cc(=O)oc2c(F)c(OP(=O)(O)O)c(F)cc12 [6,8-difluoro-4-methylumbelliferyl phosphate]",Km (PTPN1): 21.6 µM; Km (PTPRJ): 66.4 µM
–,"CCOC(=O)c1cc(O)c(O)c(O)c1 [compound 271, ethyl gallate]",Ki (PTPN6 [1]): 3.4 µM
> 60,"COc1ccc(-c2oc3c(CC=C(C)C)c(O[C@@H]4O[C@H](CO)[C@@H](O)[C@H](O)[C@H]4O)cc(O)c3c(=O)c2O)cc1 [compound 335, icariside I]",–
> 60,"C[C@@H]1O[C@@H](Oc2c(-c3cc(O)c(O)c(O)c3)oc3cc(O)cc(O)c3c2=O)[C@H](O)[C@H](O)[C@H]1O [compound 429, myricetrin]",–
> 60,"CCCCCCCCCCCCCCCCC(C(=O)O)C(O)(CC(=O)O)C(=O)O (stereo not shown) [compound 891, agaric acid]",–

SMILES,inhibition at 20 µM (PTPN6 [2]) [%],also measured
"O=C1C=CC(=O)c2c(O)cccc21 [compound 362, juglone]",> 60,–
